# Test results: ChEMBL document CHEMBL5579833, “The U.S. FDA approved cardiovascular drugs from 2011 to 2023: A medicinal chemistry perspective” (Eur J Med Chem, 2024)
# Where a name gives a salt, the structure may show the parent alone.
# What was measured:
# [1] = Activation of Myosin S1 ATPase activity in bovine Cardio-myofibril
# [2] = Elimination half life in cynomologus monkey; settings: cynomolgus monkey, in vivo
# [3] = Plasma protein binding in cynomolgus monkey
# [4] = target: T1, Type-2 angiotensin II receptor (Homo sapiens, UniProt P50052); test: Inhibition of Angiotensin-2 receptor (unknown origin)
# T1 sequence (P50052 whole entry): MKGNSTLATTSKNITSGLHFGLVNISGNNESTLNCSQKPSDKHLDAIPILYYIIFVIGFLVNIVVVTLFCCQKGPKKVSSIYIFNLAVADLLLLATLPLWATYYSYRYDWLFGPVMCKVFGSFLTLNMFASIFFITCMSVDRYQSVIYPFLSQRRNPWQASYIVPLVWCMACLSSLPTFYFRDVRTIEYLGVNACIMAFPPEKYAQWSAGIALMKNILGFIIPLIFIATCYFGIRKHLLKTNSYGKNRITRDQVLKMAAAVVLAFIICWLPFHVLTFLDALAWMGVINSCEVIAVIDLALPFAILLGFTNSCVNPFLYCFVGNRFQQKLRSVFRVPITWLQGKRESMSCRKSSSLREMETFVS
# [5] = Inhibition of ApoB lipoprotein secretion in human HepG2 cells; type: functional; settings: read-out: ED50 (the source's name)
# [6] = species: Rattus norvegicus; test: Antithrombotic activity in fibrin-rich platelet-poor rat thrombin
# [7] = target: P2Y purinoceptor 12 (Homo sapiens, UniProt Q9H244); test: Binding affinity to human P2Y12 assessed as inhibition constant
# Chain of P2Y purinoceptor 12 (Q9H244 whole entry): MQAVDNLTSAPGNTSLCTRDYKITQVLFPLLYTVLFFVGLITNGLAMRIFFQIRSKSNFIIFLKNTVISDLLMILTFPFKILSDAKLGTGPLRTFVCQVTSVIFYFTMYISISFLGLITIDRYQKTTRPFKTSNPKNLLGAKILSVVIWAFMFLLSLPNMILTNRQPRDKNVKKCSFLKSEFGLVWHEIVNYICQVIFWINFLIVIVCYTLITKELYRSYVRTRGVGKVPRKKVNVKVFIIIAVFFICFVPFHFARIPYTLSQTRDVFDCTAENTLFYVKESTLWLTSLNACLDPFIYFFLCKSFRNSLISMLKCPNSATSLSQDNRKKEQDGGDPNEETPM
# [8] = test system: Platelet; test: Inhibition of thrombin-induced human platelet aggregation
smiles,measurement,setting,value
CC(C)n1c(=O)cc(N[C@@H](C)c2ccccc2)[nH]c1=O,IC50,[1],300 nM
CCCCC(=O)N(Cc1ccc(-c2ccccc2-c2nnn[nH]2)cc1)[C@H](C(=O)O)C(C)C.CCOC(=O)[C@H](C)C[C@@H](Cc1ccc(-c2ccccc2)cc1)NC(=O)CCC(=O)O,half-life,[2],4.6 h
same,fraction unbound,[3],0.06
CCOc1nc2cccc(C(=O)OCc3oc(=O)oc3C)c2n1Cc1ccc(-c2ccccc2-c2noc(=O)[nH]2)cc1 [AZILSARTAN MEDOXOMIL],IC50,[4],2.6 nM
O=C(NC1CCN(CCCCC2(C(=O)NCC(F)(F)F)c3ccccc3-c3ccccc32)CC1)c1ccccc1-c1ccc(C(F)(F)F)cc1 [LOMITAPIDE MESYLATE],EC50,[5],0.8 nM
O=C(NC[C@H]1CN(c2ccc(N3CCOCC3=O)cc2)C(=O)O1)c1ccc(Cl)s1 [RIVAROXABAN],ED50,[6],0.1 mg/kg
CCCSc1nc(N[C@@H]2C[C@H]2c2ccc(F)c(F)c2)c2nnn([C@@H]3C[C@H](OCCO)[C@@H](O)[C@H]3O)c2n1 [TICAGRELOR],Ki,[7],4.3 nM
CCOC(=O)N[C@@H]1CC[C@@H]2[C@@H](C1)C[C@H]1C(=O)O[C@H](C)[C@H]1[C@H]2/C=C/c1ccc(-c2cccc(F)c2)cn1 [VORAPAXAR],IC50,[8],47 nM
